We go through 24 compounds from patent US12780800B1, “Triazole-pyridinyl substituted azacyclohexyl acetic acid compounds as LPA receptor antagonists” (Viva Star Biosciences Limited, priority 2021, dated 2022).

In this assay the target is T1, LPA1 (Homo sapiens, UniProt Q92633).
T1 construct: ProLink (PK) beta-galactosidase enzyme-fragment tag; host or cells: CHO-K1
T1 sequence (Q92633 whole entry, the tested form may be a part): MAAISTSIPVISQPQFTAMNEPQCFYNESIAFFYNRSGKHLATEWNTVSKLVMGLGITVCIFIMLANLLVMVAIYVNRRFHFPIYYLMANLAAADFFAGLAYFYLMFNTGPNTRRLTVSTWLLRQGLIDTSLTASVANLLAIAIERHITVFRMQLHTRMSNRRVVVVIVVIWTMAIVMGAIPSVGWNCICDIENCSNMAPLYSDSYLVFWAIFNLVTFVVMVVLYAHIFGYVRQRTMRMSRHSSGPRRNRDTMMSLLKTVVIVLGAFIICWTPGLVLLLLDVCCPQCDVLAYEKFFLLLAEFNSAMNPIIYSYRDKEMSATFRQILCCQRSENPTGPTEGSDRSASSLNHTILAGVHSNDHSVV
The assay is described as follows: LPA1 calcium flux assay (LPA1 functional antagonist assay). In kind it is cell-based. The settings on record: PathHunter CHO-K1 EDG2 β-Arrestin cell line; calcium indicator dye; stimulated with EC80 concentration of LPA; FLIPR Tetra. Here is the method: Following overnight culture, cells were loaded with calcium indicator dye from the HitHunter Calcium No WashPLUS Assay kit (Eurofins DiscoverX Corporation, Cat #93-0091) for 45 minutes at 37° C. […] After compound addition, assay plates were equilibrated to room temperature for 30 minutes. […] IC50 values were determined by Chemical and Biological Information System from ChemInnovation Software, Inc. The compounds of this invention were tested for their activity to inhibit LPA1 as determined in an LPA1 functional antagonist assay as described herein.
What is called IC50 is the midpoint of a concentration-inhibition curve. For `CCc1nc(-c2nnn(C)c2COc2nccc(C3CCC3)n2)ccc1N1CC(CC(=O)O)CCC1=O` (single isomer, unassigned) [Example 91, (R) or (S)-2-(1-(6-(5-(((4-cyclobutylpyrimidin-2-yl)oxy)methyl)-1-methyl-1H-1,2,3-triazol-4-yl)-2-ethylpyridin-3-yl)-6-oxopiperidin-3-yl)acetic acid], the IC50 was above 5 µM.
Turning to `CCc1nc(-c2nnn(C)c2COC(=O)N(C)CC2CC2)ccc1N1C[C@@H](CC(=O)O)CC(F)(F)C1` [Example 141, (S)-2-(1-(6-(5-((((cyclopropylmethyl)(methyl)carbamoyl)oxy)methyl)-1-methyl-1H-1,2,3-triazol-4-yl)-2-ethylpyridin-3-yl)-5,5-difluoropiperidin-3-yl)acetic acid], the IC50 is 0.1 to 0.5 µM.
As for `CCCc1ccc(=O)n(Cc2c(-c3cc(F)c(N4CCCC(CC(=O)O)C4)c(CC)n3)nnn2C)c1` (stereo not drawn) [Example 48, 2-(1-(2-ethyl-4-fluoro-6-(1-methyl-5-((2-oxo-5-propylpyridin-1(2H)-yl)methyl)-1H-1,2,3-triazol-4-yl)pyridin-3-yl)piperidin-3-yl)acetic acid], the half-inhibitory concentration (IC50) is above 5 µM.
Under `CCCc1ccn(Cc2c(-c3ccc(N4C[C@@H](CC(=O)O)CC(F)(F)C4)c(CC)n3)nnn2C)c(=O)c1` [Example 8, (S)-2-(1-(2-ethyl-6-(1-methyl-5-((2-oxo-4-propylpyridin-1(2H)-yl)methyl)-1 H-1,2,3-triazol-4-yl)pyridin-3-yl)-5,5-difluoropiperidin-3-yl)acetic acid] stands above 5 µM.
For `CCCc1ccc(=O)n(Cc2c(-c3ccc(N4CCC[C@H](CC(=O)O)C4)c(C#N)n3)nnn2C)c1` [Example 50, (R)-2-(1-(2-cyano-6-(1-methyl-5-((2-oxo-5-propylpyridin-1(2H)-yl)methyl)-1H-1,2,3-triazol-4-yl)pyridin-3-yl)piperidin-3-yl)acetic acid] the value was above 5 µM; for `CCCc1ccc(=O)n(Cc2c(-c3ncc(N4C[C@@H](CC(=O)O)CC(F)(F)C4)c(CC)n3)cnn2C)c1` [Example 37, (S)-2-(1-(4-ethyl-2-(1-methyl-5-((2-oxo-5-propylpyridin-1(2H)-yl)methyl)-1H-pyrazol-4-yl)pyrimidin-5-yl)-5,5-difluoropiperidin-3-yl)acetic acid], above 5 µM.
In the case of `Cc1nc(-c2nnn(C)c2Cn2cc(CC3CC3)n(C)c2=O)ccc1N1C[C@@H](CC(=O)O)CC(F)(F)C1` [Example 67, (S)-2-(1-(6-(5-((4-(cyclopropylmethyl)-3-methyl-2-oxo-2,3-dihydro-1H-imidazol-1-yl)methyl)-1-methyl-1H-1,2,3-triazol-4-yl)-2-methylpyridin-3-yl)-5,5-difluoropiperidin-3-yl)acetic acid], the half-inhibitory concentration (IC50) lay within 0.1 to 0.5 µM.
Consider `Cc1nc(-c2nnn(C)c2Cn2ccn(CC3CC3)c2=O)ccc1N1C[C@@H](CC(=O)O)CC(F)(F)C1` [Example 72, (S)-2-(1-(6-(5-((3-(cyclopropylmethyl)-2-oxo-2,3-dihydro-1H-imidazol-1-yl)methyl)-1-methyl-1H-1,2,3-triazol-4-yl)-2-methylpyridin-3-yl)-5,5-difluoropiperidin-3-yl)acetic acid], for which the IC50 was above 5 µM.
Consider `CCc1nc(-c2nnn(C)c2Cn2cc(CC3CC3)nn2)ccc1N1C[C@@H](CC(=O)O)CC(F)(F)C1` [Example 131, (S)-2-(1-(6-(5-((4-(cyclopropylmethyl)-1H-1,2,3-triazol-1-yl)methyl)-1-methyl-1H-1,2,3-triazol-4-yl)-2-ethylpyridin-3-yl)-5,5-difluoropiperidin-3-yl)acetic acid], for which the half-inhibitory concentration (IC50) fell in the range of 0.1 to 0.5 µM.
For `CCCc1ccc(=O)n(Cc2c(-c3ccc(CN4CC(C(=O)O)CC(F)(F)C4)c(C)n3)nnn2C)c1` (single isomer, unassigned) [Example 156, (S) or (R)-5,5-difluoro-1-((2-methyl-6-(1-methyl-5-((2-oxo-5-propylpyridin-1(2H)-yl)methyl)-1H-1,2,3-triazol-4-yl)pyridin-3-yl)methyl)piperidine-3-carboxylic acid] the value was 0.1 to 0.5 µM; for `CCc1nc(-c2nnn(C)c2Cn2cc(C3CCC3)ccc2=O)ccc1N1C[C@@H](CC(=O)O)CC(F)(F)C1` [Example 17, (S)-2-(1-(6-(5-((5-cyclobutyl-2-oxopyridin-1(2H)-yl)methyl)-1-methyl-1H-1,2,3-triazol-4-yl)-2-ethylpyridin-3-yl)-5,5-difluoropiperidin-3-yl)acetic acid], below 0.1 µM.
As for `Cc1nc(-c2nnn(C)c2COC(=O)N(C)C2CCC2)ccc1N1C[C@@H](CC(=O)O)CC(F)(F)C1` [Example 142, (S)-2-(1-(6-(5-(((cyclobutyl(methyl)carbamoyl)oxy)methyl)-1-methyl-1H-1,2,3-triazol-4-yl)-2-methylpyridin-3-yl)-5,5-difluoropiperidin-3-yl)acetic acid], the IC50 was 0.1 to 0.5 µM.
Under `CCCN(C)C(=O)OCc1c(-c2ccc(N3C[C@@H](CC(=O)O)CC(F)(F)C3)c(C)n2)nnn1C` [Example 139, (S)-2-(5,5-difluoro-1-(2-methyl-6-(1-methyl-5-(((methyl(propyl)carbamoyl)oxy)methyl)-1H-1,2,3-triazol-4-yl)pyridin-3-yl)piperidin-3-yl)acetic acid] stands 0.1 to 0.5 µM.
On to `CCCc1cnn(Cc2c(-c3ccc(CN4CC(C(=O)O)CC(F)(F)C4)c(C)n3)nnn2C)c(=O)c1` (single isomer, unassigned) [Example 159, (R) or (S)-5,5-difluoro-1-((2-methyl-6-(1-methyl-5-((6-oxo-4-propylpyridazin-1(6H)-yl)methyl)-1H-1,2,3-triazol-4-yl)pyridin-3-yl)methyl)piperidine-3-carboxylic acid], for which the 50% inhibitory concentration (IC50) was above 5 µM.
For `CCc1nc(-c2nnn(C)c2Cn2cc(C(C)C)ccc2=O)ccc1N1C[C@@H](CC(=O)O)CC(F)(F)C1` [Example 16, (S)-2-(1-(2-ethyl-6-(5-((5-isopropyl-2-oxopyridin-1(2H)-yl)methyl)-1-methyl-1H-1,2,3-triazol-4-yl)pyridin-3-yl)-5,5-difluoropiperidin-3-yl)acetic acid] the value was below 0.1 µM; for `CCc1nc(-c2nnn(C)c2COc2nccc(C3CCC3)n2)ccc1N1CCCC(CC(=O)O)C1=O` (single isomer, unassigned) [Example 94, (S) or (R)-2-(1-(6-(5-(((4-cyclobutylpyrimidin-2-yl)oxy)methyl)-1-methyl-1H-1,2,3-triazol-4-yl)-2-ethylpyridin-3-yl)-2-oxopiperidin-3-yl)acetic acid], 0.5 to 5 µM.
For `CCc1nc(-c2nnn(C)c2Cn2nc(C3CC3)ccc2=O)ccc1N1C[C@@H](CC(=O)O)CC(F)(F)C1` [Example 36, (S)2-(1-(6-(5-((3-cyclopropyl-6-oxopyridazin-1(6H)-yl)methyl)-1-methyl-1H-1,2,3-triazol-4-yl)-2-ethylpyridin-3-yl)-5,5-difluoropiperidin-3-yl)acetic acid] the value was 0.1 to 0.5 µM; for `CCCc1ccc(=O)n(Cc2c(-c3ccc(CN4CC(C(=O)O)CC(F)(F)C4)c(C)n3)nnn2C)c1` (single isomer, unassigned) [Example 157, (R) or (S)-5,5-difluoro-1-((2-methyl-6-(1-methyl-5-((2-oxo-5-propylpyridin-1(2H)-yl)methyl)-1H-1,2,3-triazol-4-yl)pyridin-3-yl)methyl)piperidine-3-carboxylic acid], 0.5 to 5 µM.
For the compound `CCc1nc(-c2nnn(C)c2Cn2nnc(CC3CC3)n2)ccc1N1C[C@@H](CC(=O)O)CC(F)(F)C1` [Example 137, 2-[(3S)-1-[6-(5-{[5-(cyclopropylmethyl)-2H-1,2,3,4-tetrazol-2-yl]methyl}-1-methyl-1H-1,2,3-triazol-4-yl)-2-ethylpyridin-3-yl]-5,5-difluoropiperidin-3-yl]acetic acid], the IC50 was 0.1 to 0.5 µM.
Turning to `CCCc1ccc(=O)n(Cc2c(-c3ccc(N4C[C@@H](CC(=O)O)CC(F)(F)C4)c(CC)n3)cnn2C)c1` [Example 41, (S)-2-(1-(2-ethyl-6-(1-methyl-5-((2-oxo-5-propylpyridin-1(2H)-yl)methyl)-1H-pyrazol-4-yl)pyridin-3-yl)-5,5-difluoropiperidin-3-yl)acetic acid], the concentration for half-maximal inhibition (IC50) fell in the range of 0.1 to 0.5 µM.
With `Cc1nc(-c2nnn(C)c2COc2nnccc2CC(C)C)ccc1N1C[C@@H](CC(=O)O)CC(F)(F)C1` [Example 86, (S)-2-(5,5-difluoro-1-(6-(5-(((4-isobutylpyridazin-3-yl)oxy)methyl)-1-methyl-1H-1,2,3-triazol-4-yl)-2-methylpyridin-3-yl)piperidin-3-yl)acetic acid], the 50% inhibitory concentration (IC50) is 0.1 to 0.5 µM.
For the compound `CCc1nc(-c2nnn(C)c2COc2noc(CC3CC3)n2)ccc1N1C[C@@H](CC(=O)O)CC(F)(F)C1` [Example 116, (S)-2-(1-(6-(5-(((5-(cyclopropylmethyl)-1,2,4-oxadiazol-3-yl)oxy)methyl)-1-methyl-1H-1,2,3-triazol-4-yl)-2-ethylpyridin-3-yl)-5,5-difluoropiperidin-3-yl)acetic acid], the IC50 was below 0.1 µM.
Under `CCc1nc(-c2cnn(C)c2COc2nccc(C3CCC3)n2)ncc1N1C[C@@H](CC(=O)O)CC(F)(F)C1` [Example 87, (S)-2-(1-(2-(5-(((4-cyclobutylpyrimidin-2-yl)oxy)methyl)-1-methyl-1H-pyrazol-4-yl)-4-ethylpyrimidin-5-yl)-5,5-difluoropiperidin-3-yl)acetic acid] stands below 0.1 µM.
`CCc1nc(-c2cnn(C)c2COc2noc(CC3CC3)n2)ncc1N1C[C@@H](CC(=O)O)CC(F)(F)C1` [Example 118, (S)-2-(1-(2-(5-(((5-(cyclopropylmethyl)-1,2,4-oxadiazol-3-yl)oxy)methyl)-1-methyl-1H-pyrazol-4-yl)-4-ethylpyrimidin-5-yl)-5,5-difluoropiperidin-3-yl)acetic acid]: the IC50 is above 5 µM.
